How the values were obtained:
[1] = system: Ba/F3 cells expressing OCLN-RASGRF1; assay: Cell viability (Cell Titer-Glo), Ba/F3 cells expressing OCLN-RASGRF1; type: cell-based
Protocol: Ba F3 Transformation Assays. Ba/F3 cells were maintained in RPMI 1640 (Gibco) with heat-inactivated 10% fetal bovine serum (Gibco) and penicillin (100 units/mL)/streptomycin (100 μg/mL; Gibco) and 1 ng/mL interleukin-3 (IL-3; Gibco). cDNAs (GFP or OCLN-RASGRF1) in pLX307 were introduced into Ba/F3 cells via lentiviral transduction with 8 μg/mL polybrene and centrifugation at 2250 rpm at 37 degrees C. for 30 minutes. 24 hours later, transduced cells were selected with 1 μg/mL puromycin for at least 5 days.
(§1) Cell Viability Assays and RASGRF1 knockdown. Ba/F3 cells or PaCaDD137 cells were seeded in 96-well microtiter plates. Drug or drug vehicle was added on the same day (for Ba/F3 cells) or 24 hours after seeding (for PaCaDD137 cells). Following 4-5 days of drug exposure, cell viability was determined using the Cell Titer-Glo luminescent assay (Promega) according to the manufacturer's instructions. Luminescence was measured with a Spectramax M3 plate reader (Molecular Devices). Data analysis was performed using GraphPad Prism software.

PaCaDD137 cells = assay: Cell viability (Cell Titer-Glo), PaCaDD137 cells; type: cell-based
Protocol: as §1, with “Following 4-5 days of drug exposure, cell viability was determined using the Cell Titer-Glo luminescent assay (Promega) according to the manufacturer's instructions.” left out

Row | Structure (SMILES) | IC50 ([1]; Mus musculus, BaF3, 96 h, 4 days exposure, Cell Titer-Glo, read-out: half maximal inhibitory concentration (IC50), cell viability) | IC50 (PaCaDD137 cells; 120 h, 5 days, Cell Titer-Glo) | activity of addition of pictilisib to trametinib compared to trametinib alone ([1]; 100 or 500 nM pictilisib, 4 days) | sensitivity (cell viability) ([1]; 4 days, Cell Titer-Glo) | activity of addition of pictilisib to trametinib compared to trametinib alone (PaCaDD137 cells; 100 or 500 nM pictilisib, 6 days) | sensitivity (cell viability) (PaCaDD137 cells; Cell Titer-Glo)
1 | CC(=O)Nc1cccc(-n2c(=O)n(C3CC3)c(=O)c3c(Nc4ccc(I)cc4F)n(C)c(=O)c(C)c32)c1 [trametinib] | ~0.15 nM | ~20 nM | – | – | – | –
2 | CS(=O)(=O)N1CCN(Cc2cc3nc(-c4cccc5[nH]ncc45)nc(N4CCOCC4)c3s2)CC1 [pictilisib] | – | – | only a modest increase in activity | only a modest increase in sensitivity | only a modest increase in activity | not
